In patent publication EP4763838A1, “COMPOUND AND USE THEREOF” (Ocean University of China, priority 2023, dated 2025):
Values joined by “and” are separate entries in the source; they are usually repeats but may differ in a detail not shown here. Equal values may be shown once. Where a name gives a salt, the structure may show the parent alone. Read-outs that look alike come from different tables or passages of the source.

Key:
[1] = biological target: T1, E3 ubiquitin ligase CRBN (Homo sapiens, UniProt Q96SW2); assay: Binding activity to E3 ubiquitin ligase CRBN (HTRF competitive binding with XL665-labeled thalidomide, Cereblon binding kit); settings: competition with XL665-labeled thalidomide for GST-labelled CRBN protein, 3 h at room temperature
T1 construct: purchased PE (PerkinElmer) 64BDCRBNPEG
Protocol: The binding activity of the compound disclosed in the present patent to the E3 ubiquitin ligase CRBN was determined by competitive binding of the disclosed compound with XL665-labeled thalidomide to the CRBN protein, thereby preventing the occurrence of fluorescence resonance energy transfer (FRET). Accordingly, the binding affinity of the compound to the CRBN protein was determined.
CRBN binding activity test kit (CEREBLON BINDING KITS (PE, 64BDCRBNPEG)).
The assay was based on a homogeneous time-resolved fluorescence (HTRF) technology. When a donor and an acceptor were in close proximity, the donor transferred energy to the acceptor so that the acceptor was excited to emit an emission light 665 nm.
The donor used in the kit of the present disclosure was a europium-labeled GST antibody (GST Eu Cryptate Antibody), and the acceptor was thalidomide labeled with XL665 (Thalidomide-Red reagent). The donor bound to the CRBN protein comprising a GST label. The compound disclosed in the present patent competitively bound to the CRBN protein with thalidomide. The binding activity of the compound was determined according to the fluorescence value emitted by the acceptor at 665 nm. The stronger binding force of the compound indicated the weaker signal.
The donor and the acceptor were diluted 50-fold respectively by using a kit buffer (PROTAC binding buffer 1). The CRBN protein was diluted 45-fold. The 8 mM solution of the compound disclosed in the present patent was diluted 10-fold with 1X diluent from the kit, followed by 5-fold serial dilutions for a total of 7 consecutive dilutions.
5 µl of compound, 5 µl of diluted CRBN protein and 10 µl of donor-acceptor isovolumetric mixture were sequentially added to each well of a white 384-well plate (PE, Part number:6008280). The above system was incubated for 3 h at room temperature.
A ratio of acceptor to donor emission signals for each individual well was calculated. Ratio = signal value at 665 nm/signal value at 620 nm * 10^4 Coefficient of variation (CV) = standard deviation (SD)/average Ratio × 100 [formula]
The IC50 value was calculated based on the compound concentration, Ratio and the coefficient of variation by using GraphPad Prism. Table 10 Binding activity of compounds 1-18 to E3 ubiquitin ligase CRBN

[2] = biological target: T2, BRD protein (Homo sapiens, UniProt O60885); assay: Reduction of bromodomain protein (BRD) expression levels in MV-4-11 cells (Western blot, DC50 and Dmax); assay type: cell-based; settings: BRD4 Western blot, GAPDH internal reference; for DC50: 24 hours of treatment, 0.1, 1, 10 and 20 µM; for Dmax: MV4-11, 24 hours of treatment, 0.1, 1, 10 and 20 µM
T2 construct: endogenous in cells; host or cells: MV-4-11
Protocol: The human […] MV-4-11 cells selected in this experiment were cultured in Iscove's Modified Dulbecco's Medium (IMDM) culture medium containing 10% fetal bovine serum (Gibco, USA) in an incubator under the conditions of at 37°C, 5% CO2 and 95% humidity. When the growth density reached 80%, a culture medium containing the compound was selected, and the cells were inoculated into a 6-well plate with a cell density of 1×10^6/ml, so that the final concentrations of the compound were 0.1, 1, 10 and 20 µM. After 24 hours of treatment, the cells were collected, washed twice with PBS and lysed with an RIPA lysis buffer containing a protease inhibitor and a phosphatase inhibitor. The lysed mixed solution was centrifuged to obtain a total protein extract. The concentration of the protein in the extract was detected by using a BCA method.
Protein electrophoresis was performed via SDS-PAGE, followed by constant-current electrotransfer at 200 mA for 150 min to transfer proteins onto a polyvinylidene fluoride (PVDF) membrane. The PVDF membrane was placed in 5% skim milk and blocked for 1 h at room temperature. BRD4 (#13440, CST) (1:1000) and C-MYC (ab32072, 1:1000) were added for incubation overnight at 4°C. The membrane was washed with Tris buffered saline Tween (TBST) for 3 times, with 10 min each time. The mixture of the membrane and a secondary antibody were incubated for 60 min at room temperature. The membrane was washed with TBST for 3 times, with 10 min each time. The ECL light-emitting liquid was dropwise added for exposure. Each sample was simultaneously detected using GAPDH protein as an internal reference. The protein profile was analyzed for grayscale values using analysis software ImageJ. The gray scale correction value of each sample was calculated by using the formula was used below: gray scale correction value = (target protein gray scale value/corresponding internal reference gray scale value) × 10^3Then, the calculated gray scale correction value was compared with a control gray scale correction value to calculate a degradation rate. Then, nonlinear curve fitting was performed on a logarithmic concentration-inhibition rate using Prism to obtain the DC50 and Dmax values of the compound.
Table 13 summarizes the evaluation of the reduction effects of protein degraders PRTB-01 to 16 on BRD protein expression levels. DC50 represents the concentration of the protein degrader when it induces 50% of the BRD protein to be degraded, with the level classified as A (DC50<1 µM), B (DC50 1 to 10 µM), or C (DC50>10 µM). Dmax represents the proportion of the maximum degree of […] protein degradation induced by the protein degrader to the total amount of BRD protein, with the level graded as A (Dmax>85%), B (Dmax85~50%), or C ([…]<50%) Table 13 Evaluation of protein degraders PRTB-01 to 16 in reducing BRD protein expression levels

| SMILES | IC50 ([1]; read-out: IC50) | DC50 [2] [µM] | Dmax [2] [%] | IC50 [1] [µM] |
| --- | --- | --- | --- | --- |
| O=C1CCC(c2ccc(N3CCC[C@@H]3CO)nn2)C(=O)N1 (stereo partly drawn) [Compound 5, 3-(6-((R)-2-(hydroxymethyl)pyrrolidin-1-yl)pyridazin-3-yl)piperidine-2,6-dione] |  |  |  | 50 |
| O=C1CCC(c2ccc(N3CCC[C@H]3CO)nn2)C(=O)N1 (stereo partly drawn) [Compound 6, 3-(6-((S)-2-(hydroxymethyl)pyrrolidin-1-yl)pyridazin-3-yl)piperidine-2,6-dione] |  |  |  | 50 |
| O=C1CCC(c2ccc(N3CCNCC3)nn2)C(=O)N1 (stereo not shown) [Compound 7, 3-(6-(piperazin-1-yl)pyridazin-3-yl)piperidine-2,6-dione hydrochloride salt] |  |  |  | 50 |
| COc1ccc(C2CCC(=O)NC2=O)nn1 (stereo not shown) [Compound 8, 3-(6-methoxypyridazin-3-yl) piperidine-2,6-dione] |  |  |  | 50 |
| Cc1cc(N2CCNCC2)nnc1C1CCC(=O)NC1=O (stereo not shown) [Compound 9, 3-(4-methyl-6-(piperazin-1-yl)pyridazin-3-yl)piperidine-2,6-dione hydrochloride salt] |  |  |  | 50 |
| O=C1CCC(c2nnc(N3CCNCC3)cc2F)C(=O)N1 (stereo not shown) [Compound 13, 3-(4-fluoro-6-(piperazin-1-yl)pyridazin-3-yl)piperidine-2,6-dione hydrochloride salt] |  |  |  | 50 |
| N#Cc1cc(N2CCNCC2)nnc1C1CCC(=O)NC1=O (stereo not shown) [Compound 14, 3-(2,6-dioxopiperidin-3-yl) -6-(piperazin-1-yl)pyridazine-4-carbonitrile hydrochloride salt] |  |  |  | 50 |
| O=C1CCC(c2nnc(N3CCNCC3)cc2C(F)(F)F)C(=O)N1 (stereo not shown) [Compound 15, 3-(6-(piperazin-1-yl)-4-(trifluoromethyl)pyridazin-3-yl)piperidine-2,6-dione hydrochloride salt] |  |  |  | 50 |
| COc1cc(N2CCNCC2)nnc1C1CCC(=O)NC1=O (stereo not shown) [Compound 16, 3-(4-methoxy-6-(piperazin-1-yl)pyridazin-3-yl)piper idine-2,6-dione hydrochloride salt] |  |  |  | 50 |
| Nc1cc(N2CCNCC2)nnc1C1CCC(=O)NC1=O (stereo not shown) [Compound 17, 3-(4-amino-6-(piperazin-1-yl)pyridazin-3-yl)piperidine-2,6-dione hydrochloride salt] |  |  |  | 50 |
| CN(C)Cc1cc(N2CCNCC2)nnc1C1CCC(=O)NC1=O (stereo not shown) [Compound 18, 3-(4-((dimethylamino)methyl)-6-(piperazin-1-yl)pyridazin-3-yl)piperidine-2,6-dionebis hydrochloride salt] | > 50 µM and 100 µM |  |  |  |
| O=C1CCC(c2nnc(N3CCNCC3)cc2-c2ccccc2)C(=O)N1 (stereo not shown) [Compound 19, 3-(4-phenyl-6-(piperazin-1-yl)pyridazin-3-yl)piperidine-2,6-dione hydrochloride salt] |  |  |  | > 100 |
| O=C1CCC(c2nnc(N3CCNCC3)cc2-c2ccncc2)C(=O)N1 (stereo not shown) [Compound 20, 3-(6-(piperazin-1-yl)-4-(pyridin-4-yl)pyridazin-3-yl)pi peridine-2,6-dione hydrochloride salt] |  |  |  | > 100 |
| Cc1cc(C2CCC(=O)NC2=O)nnc1N1CCNCC1 (stereo not shown) [Compound 21, 3-(5-methyl-6-(piperazin-1-yl)pyridazin-3-yl)piperidine-2,6-dione hydrochloride salt] |  |  |  | 50 |
| Cc1sc2c(c1C)C(c1ccc(Cl)cc1)=N[C@@H](CC(=O)NCCCCNC(=O)COc1ccc(C3CCC(=O)NC3=O)nn1)c1nnc(C)n1-2 (stereo partly shown) [PRTB-01] |  | 1 to 10 | < 50 |  |

Continued, in another order:

| IC50 ([1]; read-out: IC50) | DC50 [2] [µM] | Dmax [2] [%] | SMILES | IC50 [1] [µM] |
| --- | --- | --- | --- | --- |
|  | < 1 | > 85 | Cc1sc2c(c1C)C(c1ccc(Cl)cc1)=N[C@@H](CC(=O)NCCCCCNC(=O)COc1ccc(C3CCC(=O)NC3=O)nn1)c1nnc(C)n1-2 (stereo partly shown) [PRTB-02] |  |
|  | 1 to 10 | < 50 | Cc1sc2c(c1C)C(c1ccc(Cl)cc1)=N[C@@H](CC(=O)NCCCCCCNC(=O)COc1ccc(C3CCC(=O)NC3=O)nn1)c1nnc(C)n1-2 (stereo partly shown) [PRTB-03] |  |
|  | 1 to 10 | < 50 | Cc1sc2c(c1C)C(c1ccc(Cl)cc1)=N[C@@H](CC(=O)NCCCC(=O)N1CCN(c3ccc(C4CCC(=O)NC4=O)nn3)CC1)c1nnc(C)n1-2 (stereo partly shown) [PRTB-04] |  |
|  | 1 to 10 | < 50 | Cc1sc2c(c1C)C(c1ccc(Cl)cc1)=N[C@@H](CC(=O)NCCCCC(=O)N1CCN(c3ccc(C4CCC(=O)NC4=O)nn3)CC1)c1nnc(C)n1-2 (stereo partly shown) [PRTB-05] |  |
|  | 1 to 10 | 50 to 85 | Cc1sc2c(c1C)C(c1ccc(Cl)cc1)=N[C@@H](CC(=O)NCCOCC(=O)N1CCN(c3ccc(C4CCC(=O)NC4=O)nn3)CC1)c1nnc(C)n1-2 (stereo partly shown) [PRTB-06] |  |
|  | > 10 | < 50 | Cc1sc2c(c1C)C(c1ccc(Cl)cc1)=N[C@@H](CC(=O)NCCCOCC(=O)N1CCN(c3ccc(C4CCC(=O)NC4=O)nn3)CC1)c1nnc(C)n1-2 (stereo partly shown) [PRTB-07] |  |
|  | 1 to 10 | 50 to 85 | Cc1sc2c(c1C)C(c1ccc(Cl)cc1)=N[C@@H](CC(=O)NCCOCC(=O)N1CCN(c3ccc(N4CCC(=O)NC4=O)nn3)CC1)c1nnc(C)n1-2 [PRTB-08] |  |
|  | 1 to 10 | 50 to 85 | Cc1cc(N2CCN(C(=O)COCCNC(=O)C[C@@H]3N=C(c4ccc(Cl)cc4)c4c(sc(C)c4C)-n4c(C)nnc43)CC2)nnc1C1CCC(=O)NC1=O (stereo partly shown) [PRTB-09] |  |
|  | > 10 | < 50 | Cc1sc2c(c1C)C(c1ccc(Cl)cc1)=N[C@@H](CC(=O)NCCOCC(=O)N1CCN(c3nnc(C4CCC(=O)NC4=O)c4c3CCCC4)CC1)c1nnc(C)n1-2 (stereo partly shown) [PRTB-10] |  |
|  | > 10 | < 50 | Cc1sc2c(c1C)C(c1ccc(Cl)cc1)=N[C@@H](CC(=O)NCCOCC(=O)N1CCN(c3nnc(C4CCC(=O)NC4=O)c4ccccc34)CC1)c1nnc(C)n1-2 (stereo partly shown) [PRTB-11] |  |
|  | < 1 | > 85 | Cc1sc2c(c1C)C(c1ccc(Cl)cc1)=N[C@@H](CC(=O)NCCCCCOC1CN(c3ccc(C4CCC(=O)NC4=O)nn3)C1)c1nnc(C)n1-2 (stereo partly shown) [PRTB-12] |  |
|  | < 1 | > 85 | Cc1sc2c(c1C)C(c1ccc(Cl)cc1)=N[C@@H](CC(=O)NCCCCCNC(=O)C#Cc1ccc(C3CCC(=O)NC3=O)nn1)c1nnc(C)n1-2 (stereo partly shown) [PRTB-13] |  |
|  | < 1 | 50 to 85 | Cc1sc2c(c1C)C(c1ccc(Cl)cc1)=N[C@@H](CC(=O)NCCCn1ccc(C#Cc3ccc(C4CCC(=O)NC4=O)nn3)n1)c1nnc(C)n1-2 (stereo partly shown) [PRTB-14] |  |
|  | < 1 | > 85 | Cc1sc2c(c1C)C(c1ccc(Cl)cc1)=N[C@@H](CC(=O)NCCCn1cc(C#Cc3ccc(C4CCC(=O)NC4=O)nn3)cn1)c1nnc(C)n1-2 (stereo partly shown) [PRTB-15] |  |
|  | > 10 | < 50 | COc1nnc(C2CCC(=O)NC2=O)cc1N1CCN(C(=O)COCCNC(=O)C[C@@H]2N=C(c3ccc(Cl)cc3)c3c(sc(C)c3C)-n3c(C)nnc32)CC1 (stereo partly shown) [PRTB-16] |  |
